We go through 24 compounds from ChEMBL document CHEMBL3396963, “Scaffold hopping: exploration of acetanilide-containing uracil analogues as potential NNRTIs” (Bioorg Med Chem, 2015).

Molecules are shown by their SMILES. The source made the active and inactive calls. The rule behind the calls is not given here. Some results are limits rather than exact numbers.

Data set [1] concerns the target T1, Human immunodeficiency virus type 1 reverse transcriptase (Human immunodeficiency virus 1, UniProt Q72547). Description: Inhibition of HIV1 recombinant wild type reverse transcriptase p66/p51 pre-incubated with compound before enzyme addition using poly(rA) template and measured after 40 mins by picogreen based spectrofluorometry.
Data set [2] in a line: Selectivity index, ratio of CC50 for human MT4 cells to EC50 for HIV1 3B infected in human MT4 cells. Format: toxicity, cell-based. Conditions: HIV-1 3B infected MT4 cells, read-out: Ratio CC50/EC50.
The nature of data set [3]: Cytotoxicity against human MT4 cells assessed as reduction in cell viability. The format is cell-based.
In data set [4] the test system is Human immunodeficiency virus 1. Description: Antiviral activity against HIV1 3B infected in human MT4 cells assessed as inhibition of virus-induced cytopathogenic effect. Format: functional, organism-based. Particulars: Human immunodeficiency virus 1, 3B.
Data set [5] has as its system Human immunodeficiency virus 1. Description: Antiviral activity against HIV1 3B infected in human MT4 cells exposed to MT4 cell CC50 level of compound added after 1 to 25 hrs post virus infection following 1 hr virus adsorption period assessed as inhibition of virus production measured at 31 hrs post infection by p24 ELISA method. Format: functional, organism-based.

Data set [6] deals with T1, Human immunodeficiency virus type 1 reverse transcriptase. Description: Inhibition of HIV1 ribonuclease H pre-incubated with compound before enzyme addition using RNA/DNA heteroduplex and measured after 60 mins by picogreen based spectrofluorometry.
Data set [7] has as its system Human immunodeficiency virus 1. The data set can be described thus: Antiviral activity against HIV1 3B expressing reverse transcriptase K103N/Y181C mutant infected in human MT4 cells assessed as inhibition of virus-induced cytopathogenic effect. Format: functional, organism-based. On the technique in general: Damage to the host cells serves as the signal in cytopathic effect assays.

Data set [8] concerns Human immunodeficiency virus 1. Description: Antiviral activity against HIV1 3B infected in human MT4 cells exposed to MT4 cell CC50 level of compound added after 1 to 25 hrs post virus infection following 1 hr virus adsorption period assessed as assessed as inhibition of virus-induced cytopathogenic effect. Format: functional, organism-based.
Data set [9] deals with Human immunodeficiency virus type 1 reverse transcriptase (Human immunodeficiency virus 1, UniProt Q72547, Y181C). Description: Inhibition of HIV1 reverse transcriptase Y181C mutant using radioactively-labeled […] substrate and activated DNA as template-primer complex.
Data set [10] concerns the target Human immunodeficiency virus type 1 reverse transcriptase (Human immunodeficiency virus 1, UniProt Q72547, L100I). Description: Inhibition of HIV1 reverse transcriptase L100I mutant using radioactively-labeled […] substrate and activated DNA as template-primer complex.
The target in data set [11] is Human immunodeficiency virus type 1 reverse transcriptase (Human immunodeficiency virus 1, UniProt Q72547, V106A). Description: Inhibition of HIV1 reverse transcriptase V106A mutant using radioactively-labeled […] substrate and activated DNA as template-primer complex.
Data set [12] has as its target Human immunodeficiency virus type 1 reverse transcriptase (Human immunodeficiency virus 1, UniProt Q72547, K103N). The data set can be described thus: Inhibition of HIV1 reverse transcriptase K103N mutant using radioactively-labeled […] substrate and activated DNA as template-primer complex.
In data set [13] the target is Human immunodeficiency virus type 1 reverse transcriptase (Human immunodeficiency virus 1, UniProt Q72547, G190A). The data set can be described thus: Inhibition of HIV1 reverse transcriptase G190A mutant using radioactively-labeled […] substrate and activated DNA as template-primer complex.
Data set [14] concerns the target Human immunodeficiency virus type 1 reverse transcriptase (Human immunodeficiency virus 1, UniProt Q72547, K103N/Y181C). The data set can be described thus: Inhibition of HIV1 reverse transcriptase K103N/Y181C mutant using radioactively-labeled […] substrate and activated DNA as template-primer complex.

Take `Cn1c(=O)ccn(Cc2ccccc2OCC(=O)Nc2ccccc2Cl)c1=O`: the Ki in data set [1] was over 100 µM. The selectivity ratio in data set [2] is under 1. Also, the half-maximal cytotoxic concentration (CC50) in [3] was 141 µM. In [4], the EC50 was over 141 µM.

In the case of `Cc1cn(Cc2ccccc2OCC(=O)Nc2ccccc2Cl)c(=O)n(C)c1=O`, in data set [1], the Ki is over 100 µM. Besides, the selectivity ratio in data set [2] is under 1. In data set [3], the CC50 was 14.8 µM. In addition, the half-maximal effective concentration (EC50) in [4] was over 14.8 µM.

On to `Cc1cc(C)cc(Cn2c(=O)ccn(CC(=O)Nc3ccccc3C)c2=O)c1`, for which the inhibition entry in data set [5], in data set [7] and in [8] was “inactive” each time. Moreover, the half-maximal inhibitory concentration (IC50) in data set [1] is 68.8 µM; in data set [6], “Not Active”. Also, in [2], the selectivity ratio was determined as 38. The CC50 in data set [3] stood at 292 µM. Besides, the EC50 in data set [4] turned out to be 7.68 µM.

In the case of `Cc1cc(C)cc(Cn2c(=O)ccn(CC(=O)NCc3ccccc3)c2=O)c1`, the inhibition result in data set [5], in data set [7] and in data set [8] was “inactive” in each case. In addition, the IC50 in data set [1] was 194 µM; in data set [6], “Not Active”. Besides, the selectivity ratio in data set [2] is under 1. Further, in data set [3], the half-maximal cytotoxic concentration (CC50) turned out to be 191 µM. The 50% effective concentration (EC50) in [4] was over 191 µM.

Take `Cc1cc(Br)cc(Cn2c(=O)ccn(CC(=O)Nc3ccccc3)c2=O)c1`: the inhibition entry in data set [5], in data set [7] and in [8] was “inactive” in each case. Moreover, the IC50 in data set [1] is 12.1 µM; in data set [6], “Not Active”. Besides, the selectivity ratio in data set [2] was 17. The cytotoxic concentration (CC50) in data set [3] worked out at 33.1 µM. For the same compound, the EC50 in [4] was 2.01 µM.

Take `O=C(Cn1ccc(=O)n(Cc2cccc3ccccc23)c1=O)Nc1ccccc1Cl`: the inhibition result in data set [5], in data set [7] and in [8] was “inactive” each time. Moreover, the IC50 in data set [1] was 44.5 µM; in data set [6], “Not Active”. The selectivity ratio in [2] was found to be 26. Further, in data set [3], the CC50 was 207 µM. Moreover, the EC50 in data set [4] was 7.94 µM.

Take `O=C1Nc2ccc(Cl)cc2[C@@](C#CC2CC2)(C(F)(F)F)O1` [EFAVIRENZ]: the 50% cytotoxic concentration (CC50) in data set [3] is over 6 µM.

Consider `Cn1c(=O)ccn(Cc2ccccc2OCC(=O)Nc2cc(Cl)ccc2Cl)c1=O`, for which the inhibition constant Ki in [1] was over 100 µM. Further, the selectivity ratio in [2] was under 1. The CC50 in [3] was determined as 29.5 µM. Further, the EC50 in data set [4] was over 29.5 µM.

As to `Cn1c(=O)ccn(Cc2ccccc2OCC(=O)Nc2ccccc2)c1=O`, in data set [1], the inhibitory constant (Ki) was over 100 µM. Further, the selectivity ratio in data set [2] is under 1. Also, the half-maximal cytotoxic concentration (CC50) in [3] was determined as 153 µM. Also, in data set [4], the EC50 was over 153 µM.

As for `Cc1cc(C)cc(Cn2c(=O)ccn(CC(=O)Nc3cccc(C)c3C)c2=O)c1`, the inhibition entry in data set [5], in data set [7] and in data set [8] was “inactive” each time. In addition, the half-inhibitory concentration (IC50) in [1] was over 300 µM; in data set [6] it was “Not Active”. Besides, the selectivity ratio in data set [2] was 8. In [3], the CC50 was determined as 276 µM. For the same compound, the EC50 in data set [4] is 35.8 µM.

In the case of `Cn1c(=O)c(Cl)cn(Cc2ccccc2OCC(=O)Nc2ccccc2Cl)c1=O`, in data set [1], the Ki is over 100 µM. For the same compound, the selectivity ratio in data set [2] is under 1. The CC50 in data set [3] is 9.37 µM. In addition, the concentration for a half-maximal effect (EC50) in data set [4] was over 9.37 µM.

For `COc1ccccc1NC(=O)Cn1ccc(=O)n(Cc2cc(C)cc(C)c2)c1=O`, the inhibition entry in data set [5], in [7] and in [8] was “inactive” throughout. Moreover, the IC50 in data set [1] is 211 µM; in data set [6], “Not Active”. For the same compound, the selectivity ratio in [2] is 16. Besides, in [3], the CC50 was found to be 227 µM. Also, the EC50 in data set [4] came out at 14.5 µM.

Regarding `CCCn1c(=O)ccn(Cc2ccccc2OCC(=O)Nc2ccccc2Cl)c1=O`, the Ki in data set [1] was over 100 µM. Moreover, the selectivity ratio in data set [2] is under 1. In data set [3], the CC50 is 25.4 µM. In addition, in [4], the 50% effective concentration (EC50) was over 25.4 µM.

As for `Cn1c(=O)c(F)cn(Cc2ccccc2OCC(=O)Nc2ccccc2Cl)c1=O`, the inhibitory constant (Ki) in data set [1] is over 100 µM. In [2], the selectivity ratio is under 1. Moreover, the CC50 in data set [3] is 30.3 µM. In data set [4], the concentration giving a half-maximal response (EC50) was over 30.3 µM.

As to `Cc1cc(C)cc(Cn2c(=O)ccn(CC(=O)Nc3ccc(Cl)cc3)c2=O)c1`, the inhibition entry in data set [5], in data set [7] and in data set [8] was “inactive” each time. For the same compound, the concentration for half-maximal inhibition (IC50) is 62.9 µM in data set [1] and “Not Active” in data set [6]. Moreover, the selectivity ratio in [2] amounted to 11. For the same compound, the 50% cytotoxic concentration (CC50) in data set [3] was 77.5 µM. The EC50 in [4] was 7.29 µM.

Consider `C=CCn1c(=O)ccn(Cc2ccccc2OCC(=O)Nc2ccccc2Cl)c1=O`, for which the inhibition constant (Ki) in data set [1] was over 100 µM. Moreover, in data set [2], the selectivity ratio is under 1. For the same compound, the half-maximal cytotoxic concentration (CC50) in data set [3] is 30.6 µM. Moreover, the EC50 in data set [4] is over 30.6 µM.

For `Cc1ccccc1NC(=O)COc1ccccc1Cn1ccc(=O)n(C)c1=O`, in data set [1], the Ki was over 100 µM. The selectivity ratio in [2] is under 1. For the same compound, the CC50 in data set [3] worked out at 152 µM. Further, the 50% effective concentration (EC50) in [4] was over 152 µM.

As to `Cc1cc(C)cc(Cn2c(=O)ccn(CC(=O)Nc3ccccc3)c2=O)c1`, the inhibition result in [5], in data set [7] and in data set [8] was “inactive” throughout. Moreover, the IC50 in data set [1] was 79.3 µM; in data set [6], “Not Active”. Also, the selectivity ratio in data set [2] amounted to 25. Also, the CC50 in [3] is 242 µM. Moreover, in data set [4], the EC50 was 9.68 µM.

Take `Cn1c(=O)ccn(Cc2ccccc2OCC(=O)Nc2ccc(Cl)cc2)c1=O`: in data set [1], the Ki was over 100 µM. In addition, in data set [2], the selectivity ratio is under 1. Besides, the CC50 in data set [3] came to 100 µM. Also, the EC50 in data set [4] was over 100 µM.

For `Cc1ccnc2c1NC(=O)c1cccnc1N2C1CC1` [NEVIRAPINE], the CC50 in [3] was over 15 µM.

As to `Cn1c(=O)ccn(Cc2ccccc2OCC(=O)Nc2cccc(Cl)c2)c1=O`, in [1], the inhibition constant (Ki) was over 100 µM. The selectivity ratio in data set [2] was under 1. Also, the CC50 in data set [3] came to 288 µM. The concentration for a half-maximal effect (EC50) in [4] is over 288 µM.

In the case of `O=C(Cn1ccc(=O)n(Cc2cc(Cl)cc(Cl)c2)c1=O)Nc1ccccc1Cl`, the inhibition result in data set [5], in data set [7] and in [8] was “inactive” in each case. The IC50 in [1] came out at 12.7 µM; in data set [6] (read-out: IC50), 149 µM. Moreover, the Ki in data set [1] was 4.5 µM; in data set [9], 15.4 µM; in [10] it was 15.9 µM; in data set [11], 67.6 µM; in data set [12], 63.3 µM; in data set [13], 20 µM. In data set [14], the Ki was 69.9 µM. The selectivity ratio in data set [2] was determined as 10. The CC50 in [3] is 31.1 µM. Further, the half-maximal effective concentration (EC50) in [4] was 3.26 µM.

For `Cc1cc(C)cc(Cn2c(=O)ccn(CC(=O)Nc3cccc(Cl)c3)c2=O)c1`, the inhibition entry in [5], in [7] and in data set [8] was “inactive” each time. The IC50 in data set [1] was 114 µM; in [6], “Not Active”. Further, in data set [2], the selectivity ratio is 6. Also, the CC50 in [3] stood at 167 µM. In addition, the EC50 in data set [4] came to 29.5 µM.

On to `Cc1cc(C)cc(Cn2c(=O)ccn(CC(=O)Nc3ccccc3Cl)c2=O)c1`, for which the inhibition result in data set [5], in data set [7] and in [8] was “inactive” in each case. Moreover, the half-inhibitory concentration (IC50) in data set [1] was 15.7 µM; in [6] it was “Not Active”. In [2], the selectivity ratio is 17. The half-maximal cytotoxic concentration (CC50) in data set [3] came out at 28.5 µM. In data set [4], the EC50 amounted to 1.71 µM.

Broadly, the Ki is a measure of affinity in units of concentration, obtained from inhibition or displacement. Broadly, the CC50 is the concentration that lowers cell viability or growth by half. Broadly, the EC50 is the concentration that produces a half-maximal response. A word on the IC50: it is the concentration that gives 50% inhibition.
